# Experimental data from patent US20210030673A1, “Method and a Compound for Preventing Mammalian Cancer Cell Proliferation and for Treating Cancer” (Oy Granula Ab Ltd., priority 2019, published 2021).
# Read-outs that look alike come from different tables or passages of the source.
# Legend:
# [1] = system: metastatic prostate cancer (PC-3) cells; test: Live-cell imaging of PC-3 proliferation, BA or BOA; type: cell-based, human; details: 48-hour treatment
# Experimental: (§1) One day prior to the treatment, the cells were counted and plated on 24-well plates (Falcon) and incubated overnight at +37° C. (5% CO2). The following day, the cells were treated betulinic acid (BA) or betulonic acid (BOA) in concentrations of 0, 10, 50, 70, 100, and 150 μM. 1% DMSO was used to control for the effects of the solvent. All samples were made in triplicates. The cells were imaged for 48 h with 2 h intervals (9 images per well) using IncuCyte S3 Live-Cell Analysis System (Essen BioScience).
# [2] = system: normal human dermal fibroblast (HDF) cells
# Description: Results are mean values from three independent experiments (±SEM).
# [3] = Cytotoxicity assay of BA and BOA (Cell Counting Kit-8), PC-3; details: human, PC-3 metastatic prostate cancer cells
# Experimental: (§2) Cells were seeded with 5000 cells/well on a 96-well plate (Falcon) in RPMI-1640 medium (PC-3 cells) or DMEM medium (WM-266-4 cells) supplemented with 10% fetal bovine serum, 2 mM L-glutamine, 100 U/ml penicillin, and 100 μg/ml streptomycin. The cells were incubating overnight in +37° C., 5% CO2 for the cells to adhere to the plate. The following day, cells were treated with BA or BOA (prepared from stock solutions using DMSO as solvent) in concentrations of 0-200 μM in complete medium in replicate samples and incubated for 48 h. The old medium was thereafter discarded and substituted with 100 μL 10% Cell Counting Kit-8 reagent (Dojindo Molecular Technologies) diluted in serum-free RPMI-1640 medium. The samples were incubated for an additional 1 h prior to analyzing cell viability by measuring the absorbance at 450 nm using a microplate reader (Hidex Sense) according to manufacturer's protocol. Non-treated cells were used as a negative control. 1% DMSO was used to control for effect of solvent. All samples contained 1% or less DMSO. The experiment was repeated at least three independent times for accurate cytotoxicity analysis. The IC50-value was calculated using GraphPad Prism 6 software.
# [4] = system: metastatic prostate cancer (PC-3) cells; test: as above; details: read-out: IC50-value, cell viability, PC-3
# Experimental: as §2
# [5] = Cytotoxicity assay of BA and BOA (Cell Counting Kit-8), WM-266-4; details: human, WM-266-4 metastatic melanoma cells
# Experimental: as §2
# [6] = system: metastatic melanoma (WM-266-4) cells; test: as above; details: read-out: IC50-value, cell viability, WM-266-4
# Experimental: as §2
# [7] = system: metastatic melanoma (WM-266-4) cells; test: Live-cell imaging of WM-266-4 proliferation, BOA; type: cell-based, human; details: 48-hour treatment
# Experimental: as §1
# [8] = system: metastatic prostate cancer (PC-3) cells; details: 100 µM
# Experimental: as §2
# [9] = system: metastatic melanoma (WM-266-4) cells; details: 100 µM
# Experimental: as §2
# [10] = 48 h treatment, complete medium
smiles,measurement,setting,value
"C=C(C)[C@@H]1CC[C@]2(C(=O)O)CC[C@]3(C)[C@H](CC[C@@H]4[C@@]5(C)CC[C@H](O)C(C)(C)[C@@H]5CC[C@]43C)[C@@H]12 [BA, betulinic acid]",concentration giving maximum decrease of PC-3 proliferation,[1],50 µM
same,effect on HDF cell proliferation,[2],neither BA or BOA had any significant effects on HDF cells
same,"viability at 48 h, 100 µM",[3],~0%
same,IC50,"[4]; Homo sapiens, PC-3, 48 h",68 µM
same,"viability at 48 h, 100 µM",[5],~0%
same,IC50,"[6]; Homo sapiens, WM 266-4, 48 h",64.7 µM
"C=C(C)[C@@H]1CC[C@]2(C(=O)O)CC[C@]3(C)[C@H](CC[C@@H]4[C@@]5(C)CCC(=O)C(C)(C)[C@@H]5CC[C@]43C)[C@@H]12 [BOA, betulonic acid]",concentration giving maximum decrease of PC-3 proliferation,[1],50 µM
same,concentration giving maximal decrease in WM-266-4 proliferation,[7],50 µM
same,viability of PC-3 cells,[8],below 20%
same,viability of WM-266-4 cells,[9],below 20%
same,effect on HDF cell proliferation,[2],neither BA or BOA had any significant effects on HDF cells
same,IC50,[4]; [10],78.5 µM
same,IC50,[6]; [10],39.8 µM
